Measured values: ChEMBL document CHEMBL4823305, “Design, synthesis and antibacterial evaluation of novel 3-O-substituted 15-membered azalides possessing 1,2,3-triazole side chains” (2021)
Converted amounts (≈) assume the structure as drawn.

Legend:
Assay type in all cases: functional
Staphylococcus aureus [1] = assay: Antibacterial activity against erythromycin-susceptible Staphylococcus aureus ATCC25923 by broth microdilution method
Enterococcus faecalis = assay: Antibacterial activity against vancomycin-susceptible Enterococcus faecalis ATCC29212 by broth microdilution method
Bacillus subtilis = assay: Antibacterial activity against penicillin-susceptible Bacillus subtilis ATCC9372 by broth microdilution method
Enterococcus faecium = assay: Antibacterial activity against clinical isolate erythromycin-resistant Enterococcus faecium by broth microdilution method
Staphylococcus aureus [2] = assay: Antibacterial activity against methicillin-resistant Staphylococcus aureus ATCC43300 by broth microdilution method
Staphylococcus aureus [3] = assay: Antibacterial activity against penicillin-resistant Staphylococcus aureus by broth microdilution method
Klebsiella pneumoniae = assay: Antibacterial activity against Klebsiella pneumoniae ATCC10031 by broth microdilution method
Staphylococcus aureus [4] = assay: Bactericidal activity against methicillin-resistant Staphylococcus aureus ATCC43300
[5] = Ratio of MBC for bactericidal activity against methicillin-resistant Staphylococcus aureus ATCC43300 to MIC for antibacterial activity against methicillin-resistant Staphylococcus aureus ATCC43300 by broth microdilution method

Compound | MIC (Staphylococcus aureus [1]) [mg/L] | MIC (Enterococcus faecalis) [mg/L] | MIC (Bacillus subtilis) [mg/L] | MIC (Enterococcus faecium) [mg/L] | MIC (Staphylococcus aureus [2]) [mg/L] | MIC (Staphylococcus aureus [3]) [mg/L] | MIC (Klebsiella pneumoniae) [mg/L] | MBC (Staphylococcus aureus [4]) [mg/L] | Ratio [5]
CC[C@H]1OC(=O)[C@H](C)[C@@H](OC(=O)NNC(=O)Cn2cc(-c3ccc(Br)cc3)nn2)[C@H](C)[C@@H](O[C@@H]2O[C@H](C)C[C@H](N(C)C)[C@H]2O)[C@](C)(O)C[C@@H](C)CN(C)[C@H](C)[C@H]2OC(=O)O[C@@]21C | 32 (≈ 34.1 µM) | 32 (≈ 34.1 µM) | 32 (≈ 34.1 µM) | 64 (≈ 68.2 µM) | 64 (≈ 68.2 µM) | 128 (≈ 136 µM) | 64 (≈ 68.2 µM) |  | 
CC[C@H]1OC(=O)[C@H](C)[C@@H](OC(=O)NNC(=O)Cn2cc(-c3cccc(Br)c3)nn2)[C@H](C)[C@@H](O[C@@H]2O[C@H](C)C[C@H](N(C)C)[C@H]2O)[C@](C)(O)C[C@@H](C)CN(C)[C@H](C)[C@H]2OC(=O)O[C@@]21C | 64 (≈ 68.2 µM) | 32 (≈ 34.1 µM) | 64 (≈ 68.2 µM) | 128 (≈ 136 µM) | 128 (≈ 136 µM) | 256 (≈ 273 µM) | 32 (≈ 34.1 µM) |  | 
CC[C@H]1OC(=O)[C@H](C)[C@@H](OC(=O)NNC(=O)Cn2cc(-c3ccc(-c4ccccc4)cc3)nn2)[C@H](C)[C@@H](O[C@@H]2O[C@H](C)C[C@H](N(C)C)[C@H]2O)[C@](C)(O)C[C@@H](C)CN(C)[C@H](C)[C@H]2OC(=O)O[C@@]21C | 16 (≈ 17.1 µM) | 8 (≈ 8.55 µM) | 16 (≈ 17.1 µM) | 16 (≈ 17.1 µM) | 32 (≈ 34.2 µM) | 32 (≈ 34.2 µM) | 32 (≈ 34.2 µM) | > 256 | >8
CC[C@H]1OC(=O)[C@H](C)[C@@H](OC(=O)NNC(=O)Cn2cc(-c3cccc([N+](=O)[O-])c3)nn2)[C@H](C)[C@@H](O[C@@H]2O[C@H](C)C[C@H](N(C)C)[C@H]2O)[C@](C)(O)C[C@@H](C)CN(C)[C@H](C)[C@H]2OC(=O)O[C@@]21C | 64 (≈ 70.7 µM) | 32 (≈ 35.4 µM) | 128 (≈ 141 µM) | 128 (≈ 141 µM) | 256 (≈ 283 µM) | 256 (≈ 283 µM) | 32 (≈ 35.4 µM) |  | 
CC[C@H]1OC(=O)[C@H](C)[C@@H](OC(=O)NNC(=O)Cn2cc(-c3ccccc3Cl)nn2)[C@H](C)[C@@H](O[C@@H]2O[C@H](C)C[C@H](N(C)C)[C@H]2O)[C@](C)(O)C[C@@H](C)CN(C)[C@H](C)[C@H]2OC(=O)O[C@@]21C | 32 (≈ 35.8 µM) | 64 (≈ 71.6 µM) | 64 (≈ 71.6 µM) | 64 (≈ 71.6 µM) | 128 (≈ 143 µM) | 256 (≈ 286 µM) | 32 (≈ 35.8 µM) |  | 
CC[C@H]1OC(=O)[C@H](C)[C@@H](OC(=O)NNC(=O)Cn2cc(-c3ccc(OC)cc3)nn2)[C@H](C)[C@@H](O[C@@H]2O[C@H](C)C[C@H](N(C)C)[C@H]2O)[C@](C)(O)C[C@@H](C)CN(C)[C@H](C)[C@H]2OC(=O)O[C@@]21C | 64 (≈ 71.9 µM) | 64 (≈ 71.9 µM) | 128 (≈ 144 µM) | 128 (≈ 144 µM) | 256 (≈ 288 µM) | 256 (≈ 288 µM) | 32 (≈ 36 µM) |  | 
CC[C@H]1OC(=O)[C@H](C)[C@@H](OC(=O)NNC(=O)Cn2cc(-c3cccc(N)c3)nn2)[C@H](C)[C@@H](O[C@@H]2O[C@H](C)C[C@H](N(C)C)[C@H]2O)[C@](C)(O)C[C@@H](C)CN(C)[C@H](C)[C@H]2OC(=O)O[C@@]21C | 128 (≈ 146 µM) | > 128 | > 128 | 128 (≈ 146 µM) | > 256 | > 256 | 128 (≈ 146 µM) |  | 
CCCOc1ccc(-c2cn(CC(=O)NNC(=O)O[C@H]3[C@H](C)[C@@H](O[C@@H]4O[C@H](C)C[C@H](N(C)C)[C@H]4O)[C@](C)(O)C[C@@H](C)CN(C)[C@H](C)[C@H]4OC(=O)O[C@]4(C)[C@@H](CC)OC(=O)[C@@H]3C)nn2)cc1 | 16 (≈ 17.4 µM) | 16 (≈ 17.4 µM) | 32 (≈ 34.9 µM) | 64 (≈ 69.7 µM) | 64 (≈ 69.7 µM) | 64 (≈ 69.7 µM) | 32 (≈ 34.9 µM) |  | 
CC[C@H]1OC(=O)[C@H](C)[C@@H](O[C@H]2C[C@@](C)(OC)[C@@H](O)[C@H](C)O2)[C@H](C)[C@@H](O[C@@H]2O[C@H](C)C[C@H](N(C)C)[C@H]2O)[C@](C)(OC)C[C@@H](C)C(=O)[C@H](C)[C@@H](O)[C@]1(C)O [CLARITHROMYCIN] | < 0.25 | 1 (≈ 1.34 µM) | < 0.25 | 256 (≈ 342 µM) | > 256 | > 256 | 4 (≈ 5.35 µM) |  | 
CC[C@H]1OC(=O)[C@H](C)[C@@H](OC(=O)NNC(=O)Cn2cc(-c3ccccc3OC)nn2)[C@H](C)[C@@H](O[C@@H]2O[C@H](C)C[C@H](N(C)C)[C@H]2O)[C@](C)(O)C[C@@H](C)CN(C)[C@H](C)[C@H]2OC(=O)O[C@@]21C | 64 (≈ 71.9 µM) | 64 (≈ 71.9 µM) | 128 (≈ 144 µM) | 128 (≈ 144 µM) | 256 (≈ 288 µM) | 256 (≈ 288 µM) | 64 (≈ 71.9 µM) |  | 
CC[C@H]1OC(=O)[C@H](C)[C@@H](OC(=O)NNC(=O)Cn2cc(-c3ccc(F)cc3)nn2)[C@H](C)[C@@H](O[C@@H]2O[C@H](C)C[C@H](N(C)C)[C@H]2O)[C@](C)(O)C[C@@H](C)CN(C)[C@H](C)[C@H]2OC(=O)O[C@@]21C | 64 (≈ 72.9 µM) | 32 (≈ 36.4 µM) | 64 (≈ 72.9 µM) | 128 (≈ 146 µM) | 256 (≈ 292 µM) | 128 (≈ 146 µM) | 64 (≈ 72.9 µM) |  | 
